Results on two compounds are retold here after paper PMC4955742 (Molecular bioSystems, 2016).

In general, Kd refers to the free concentration of one partner at which half of the binding sites on the other are occupied at equilibrium, for simple one-to-one binding.

Holding throughout (experiment): intrinsic tryptophan fluorescence quenching
Holding throughout (format): binding

Test [1] has as its target T1, HucR-H51F (Deinococcus radiodurans, UniProt Q9RV71, H51F).
The target of test [2] is T2, HucR (hypothetical uricase regulator), HucR-WT (Deinococcus radiodurans, UniProt Q9RV71).
T2 sequence (Q9RV71 1-181): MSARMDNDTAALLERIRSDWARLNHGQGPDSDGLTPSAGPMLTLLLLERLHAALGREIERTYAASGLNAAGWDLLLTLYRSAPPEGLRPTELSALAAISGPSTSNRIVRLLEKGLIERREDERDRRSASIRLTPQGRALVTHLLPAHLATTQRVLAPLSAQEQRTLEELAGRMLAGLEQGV

Test [3] deals with T3, HucR-E48Q (Deinococcus radiodurans, UniProt Q9RV71, E48Q).
In test [4] the target is T2, HucR (hypothetical uricase regulator), HucR-WT. The source holds these as a separate data set.
Test [5] deals with T1, HucR-H51F. The source holds these as a separate data set.
Test [6] deals with T3, HucR-E48Q. The source holds these as a separate data set.

Like-named read-outs stand apart in the source and are kept apart here.

On to `O=c1[nH]c(=O)c2[nH]c(=O)[nH]c2[nH]1` [urate], for which the values for the dissociation constant Kd (on HucR-H51F [1]; in test [2]; on HucR-E48Q [3]) were 14.7 ± 1.2 µM, 11.4 ± 2.9 µM and 2.2 ± 0.8 µM, respectively.

As for `O=c1[nH]c(=O)c2[nH]cnc2[nH]1` [xanthine], the Kd (in test [4]; on HucR-H51F [5]; at HucR-E48Q [6]) was around 17 µM in each case.
